Read-outs that look alike come from different tables or passages of the source. Numbered stars: 1 amine (or outer) side, 2 acyl side, 3 side chain; on linkers, the order of the positions; unused ones are H or OH. Bridge positions count the residues as written; N and C are the ends. Square brackets hold non-standard residues; d marks the D form. Peptide text beside a SMILES is read from it. I, II: the chains in the order shown. X1 = O=C(CCc1cn(CCOCCOCCOCCC(=O)[*:2])nn1)[*:1]; isoGln = NC(=O)[C@H](CCC(=O)[*:2])N[*:1]
Legend:
HT29 = experiment: MTT cell viability, HT29 cells; type: cell-based, human; conditions: HT29 colon adenocarcinoma, p53 Mutant
Protocol: (§1) Cell viability assay in several human cancer cell lines (See Tables 1 to 10). Cell lines were cultured in RPMI 1640 (or recommended medium when indicated) medium supplemented with 10% fetal calf serum, penicillin (50 IU/mL) and streptomycin ([…]) at 37° C. in 5% CO2. Cell viability studies was carried using the MTT (3-(4,5-dimethylthiazol-2-yl)-2,5-diphenyltetrazolium bromide) assay as previously described (31). Briefly, ≈2×10^3 CRC cells were be seeded in 96-well microtiter plates in 100 μL RPMI 1640 in the presence of 10% calf serum. […] After 1 h, 210 μL/well of full complemented media was added, the cells were grown for 48 h and then treated with 20 μL of a solution of MTT (5 mg/mL) for 2 h. The medium was discarded and DMSO ([…]) was added to each well and incubated with gentle shaking for 20 min at room temperature. The absorbance at 595 nm of the solution is analyzed using a Tecan Genios Multifunctional Microplate Reader (Tecan System Inc) and the background at 670 nm subtracted. RNA-Seq analysis was performed using state-of-the-art bioinformatics tools. Briefly, raw RNA-Seq reads were mapped to human genome (hg38) using STAR aligner (v2.7.3a). Gencode Release 36 reference was used for annotation. Transcript and gene expression levels were quantified using the IsoEM (37) with default parameters. Counts per million (CPM) method is used for normalization. Differential expression was done using DESeq2 with default parameters. Genes involved in different biological pathways (human) were searched from Geneontology (http://geneontology.org/). Bioinformatics results can be validated by using Partek Flow (v10.0.21.0912), a bioinformatics pipeline developed by Zymo Research (https://www.zymoresearch.com/).
(§2) Cell viability was evaluated using the MTT assay as described above.

SW480 = experiment: MTT cell viability, SW480 cells; type: cell-based, human; conditions: SW480 colon adenocarcinoma, p53 Mutant
Protocol: as §1, §2

DU145 = experiment: MTT cell viability, DU145 cells; type: cell-based; conditions: DU145 prostate carcinoma, p53 Mutant, read-out: Cell viability, Human Prostate Cancer Cells
Protocol: (§3) Cell viability assay in several human cancer cell lines (See Tables 1 to 10). Cell lines were cultured in RPMI 1640 (or recommended medium when indicated) medium supplemented with 10% fetal calf serum, penicillin (50 IU/mL) and streptomycin ([…]) at 37° C. in 5% CO2. Cell viability studies was carried using the MTT (3-(4,5-dimethylthiazol-2-yl)-2,5-diphenyltetrazolium bromide) assay as previously described (31). Briefly, ≈2×10^3 CRC cells were be seeded in 96-well microtiter plates in 100 μL RPMI 1640 in the presence of 10% calf serum. After 24 h incubation the cells were washed with PBS and treated with 30 μL/well of PBS or RPMI 1640 (or recommended) media containing cyclotides MCo-52, MCoTI-I (used as negative control), nutlin-3a (used as positive control) or MI-77301 (used as positive control for p53-mutated or p53-null cells) at the indicated doses for 1 h at 37° C. in 5% CO2. After 1 h, 210 μL/well of full complemented media was added, the cells were grown for 48 h and then treated with 20 μL of a solution of MTT (5 mg/mL) for 2 h. The medium was discarded and DMSO ([…]) was added to each well and incubated with gentle shaking for 20 min at room temperature. The absorbance at 595 nm of the solution is analyzed using a Tecan Genios Multifunctional Microplate Reader (Tecan System Inc) and the background at 670 nm subtracted. RNA-Seq analysis was performed using state-of-the-art bioinformatics tools. Briefly, raw RNA-Seq reads were mapped to human genome (hg38) using STAR aligner (v2.7.3a). Gencode Release 36 reference was used for annotation. Transcript and gene expression levels were quantified using the IsoEM (37) with default parameters. Counts per million (CPM) method is used for normalization. Differential expression was done using DESeq2 with default parameters. Genes involved in different biological pathways (human) were searched from Geneontology (http://geneontology.org/). Bioinformatics results can be validated by using Partek Flow (v10.0.21.0912), a bioinformatics pipeline developed by Zymo Research (https://www.zymoresearch.com/).
(§4) Tables 1 through 10 show in vitro activity of cyclotide MCo-52-2-cTAT against different human cancer cell lines, some with null-, mutated, or wildtype p53 phenotypes. Cell viability was evaluated using the MTT assay as described above.

SW626 = experiment: MTT cell viability, SW626 cells; type: cell-based, human; conditions: p53 Mutant
Protocol: as §1, §2

SW1990 = experiment: MTT cell viability, SW1990 cells; type: cell-based, human; conditions: SW1990 pancreatic adenocarcinoma, p53 Mutant (Deletion)
Protocol: as §1, §2

PC-3 = experiment: MTT cell viability, PC-3 cells; type: cell-based; conditions: PC-3 prostate carcinoma, p53 Mutant, read-out: Cell viability, Human Prostate Cancer Cells
Protocol: as §3, §4

AsPC-1 = experiment: MTT cell viability, AsPC-1 cells; type: cell-based, human; conditions: AsPC-1 pancreatic ductal adenocarcinoma, p53 Mutant
Protocol: as §1, §2

ES-2 = experiment: MTT cell viability, ES-2 ovarian cells; type: cell-based, human; conditions: p53 Mutant
Protocol: as §3, §4

LNCaP = experiment: MTT cell viability, LNCaP cells; type: cell-based; conditions: LNCaP prostate carcinoma, p53 WT, read-out: Cell viability, Human Prostate Cancer Cells
Protocol: as §3, §4

PANC-1 = experiment: MTT cell viability, PANC-1 cells; type: cell-based, human; conditions: PANC-1 pancreatic ductal adenocarcinoma, p53 Mutant
Protocol: as §1, §2

SKOV 3 = experiment: MTT cell viability, SKOV 3 ovarian cells; type: cell-based, human; conditions: p53 Mutant
Protocol: as §3, §4

HPAF-II = experiment: MTT cell viability, HPAF-II cells; type: cell-based, human; conditions: HPAF-II pancreatic ductal adenocarcinoma, p53 Mutant
Protocol: as §1, §2

CFPAC-1 = experiment: MTT cell viability, CFPAC-1 cells; type: cell-based, human; conditions: CFPAC-1 pancreatic ductal adenocarcinoma, p53 Mutant
Protocol: as §1, §2

MIA PaCa-2 = experiment: MTT cell viability, MIA PaCa-2 cells; type: cell-based, human; conditions: MIA PaCa-2 pancreatic ductal adenocarcinoma, p53 Mutant
Protocol: as §1, §2

A2780 = experiment: MTT cell viability, A2780 ovarian cells; type: cell-based, human; conditions: p53 WT
Protocol: as §3, §4

SW620 = experiment: MTT cell viability, SW620 cells; type: cell-based, human; conditions: SW620 colon adenocarcinoma, p53 Mutant
Protocol: as §1, §2

NIHOVCAR3 = experiment: MTT cell viability, NIHOVCAR3 ovarian cells; type: cell-based, human; conditions: p53 Mutant
Protocol: as §3, §4

[1] = SW626 colon adenocarcinoma metastatic site: Ovary, MTT (Table 1), read-out: EC50
[2] = SW626 ovarian cells, MTT (Table 7), read-out: Cell Viability Assay

Molecule	EC50 (HT29)	EC50 (SW480)	EC50 (DU145)	EC50 (SW626; [1])	EC50 (SW626; [2])	EC50 (SW1990)	EC50 (PC-3)	EC50 (AsPC-1)	EC50 (ES-2)	EC50 (LNCaP)	EC50 (PANC-1)	EC50 (SKOV 3)	EC50 (HPAF-II)	EC50 (CFPAC-1)	EC50 (MIA PaCa-2)	EC50 (A2780)	EC50 (SW620)	EC50 (NIHOVCAR3)
N=C(N)NCCC[C@@H]1NC(=O)[C@@H](CCCNC(=N)N)NC(=O)[C@H](CCCCN)NC(=O)[C@@H](N)CCCCNC(=O)CC[C@@H](C(=O)O)NC(=O)[C@@H](CCCNC(=N)N)NC(=O)[C@H](CCCNC(=N)N)NC(=O)[C@@H](CCCCN)NC(=O)[C@H](CCCCN)NC(=O)[C@@H](CCCNC(=N)N)NC(=O)CNC(=O)[C@@H](CCCNC(=N)N)NC1=O [cTAT] (H-KK[dR]R[dR]G[dR]K[dK]R[dR]E-OH; lactam 1-12; N-terminus and C-terminus assumed)	> 100 µM	> 100 µM	> 100 µM	> 100 µM	> 100 µM	> 100 µM	> 100 µM	> 100 µM	> 100 µM	> 100 µM	> 100 µM	> 100 µM	> 100 µM	> 100 µM	> 100 µM	> 100 µM	> 100 µM	> 100 µM
I: cyclo(ACICRHDSYCGSGSDGGVCPNLYLLCRRDKDCPG) / II: KK[dR]R[dR]G[dR]K[dK]R[dR][isoGln] (disulfide I:2-I:19, I:4-I:26, I:10-I:32; linker I:30-II:N via X1; lactam II:1-II:C) [Cyclotide 52-2-cTAT]	9.9 ± 0.9 µM	10.9 ± 1.3 µM	37 ± 1.2 µM	–	27.5 ± 0.7 µM	11.9 ± 1.3 µM	23.2 ± 0.6 µM	11.5 ± 1.5 µM	6.38 ± 0.1 µM	6.3 ± 1.1 µM	20.5 ± 2.5 µM	19.1 ± 0.1 µM	14.6 ± 1.8 µM	13.4 ± 1.8 µM	15.4 ± 1.6 µM	9.7 ± 0.5 µM	15.3 ± 2 µM	7.8 ± 0.1 µM
COc1ccc(C2=N[C@@H](c3ccc(Cl)cc3)[C@@H](c3ccc(Cl)cc3)N2C(=O)N2CCNC(=O)C2)c(OC(C)C)c1 [Nutlin 3A]	> 100 µM	58.7 ± 7.5 µM	> 100 µM	> 100 µM	50.3 ± 0.2 µM	> 100 µM	> 100 µM	> 100 µM	92.3 ± 1.2 µM	19.7 ± 1.3 µM	41.9 ± 6.9 µM	> 100 µM	> 50 µM	> 50 µM	> 50 µM	9.3 ± 0.5 µM	> 100 µM	57.7 ± 0.1 µM

— patent US20250325684A1, “POTENT ANTI-CANCER CYCLOTIDES” (University of Southern California, priority 2022, published 2025)
